Values after ≈ are worked out from the molar mass of the structure shown. Numbered stars: 1 amine (or outer) side, 2 acyl side, 3 side chain; on linkers, the order of the positions; unused ones are H or OH. Bridge positions count the residues as written; N and C are the ends. Square brackets hold non-standard residues; d marks the D form. Peptide text beside a SMILES is read from it. * marks the point of attachment. hTyr(3S-OH,4S-OH,3'-OSO3H) = N[C@H](C(=O)O)[C@H](O)[C@@H](O)c1ccc(O)c(OS(=O)(=O)O)c1; pTerphenylCO(4''-OnC5H11) = CCCCCOc1ccc(-c2ccc(-c3ccc(C(=O)*)cc3)cc2)cc1; Orn(4R-OH,5R-OH) = O=C([C@H](C[C@@H](O)[C@@H](O)N[*:3])N[*:1])[*:2]; hTyr(3S-OH,4S-OH) = N[C@H](C(=O)O)[C@H](O)[C@@H](O)c1ccc(O)cc1; Pro(3S-OH,4S-Me) = C[C@H]1CN[C@H](C(=O)O)[C@H]1O; X1 = CCCCCOc1ccc(-c2cc(-c3ccc(C(=O)*)cc3)no2)cc1; Gln(3R-OH) = NC(=O)C[C@@H](O)[C@H](N)C(=O)O; Hyp = O=C(O)[C@@H]1C[C@@H](O)CN1

Holding throughout (type): functional
Test [1] relates to Nakaseomyces glabratus. Briefly: Antimicrobial activity against Candida glabrata isolate 7754 after 24 hrs by broth dilution method. Conditions: isolate 7754, 24 h.
The subject of test [2] is Nakaseomyces glabratus. Nature of the test: Antimicrobial activity against Candida glabrata isolate 7755 expressing FKS2 F659V mutant gene after 24 hrs by broth dilution method. Conditions: isolate 7755, 24 h. For orientation: Dilution methods test growth across graded concentrations, often in twofold steps.
Test [3] deals with Nakaseomyces glabratus. Briefly: Antimicrobial activity against Candida glabrata isolate 7754 after 24 hrs by broth dilution method in presence of 50% of human serum. The following applies: isolate 7754, 24 h.
The subject of test [4] is Nakaseomyces glabratus. Nature of the test: Antimicrobial activity against Candida glabrata isolate 7755 expressing FKS2 F659V mutant gene after 24 hrs by broth dilution method in presence of 50% of human serum. Conditions: isolate 7755, 24 h.
Test [5] concerns Nakaseomyces glabratus. Nature of the test: Antimicrobial activity against Candida glabrata isolate 7754 after 48 hrs by broth dilution method. The following applies: isolate 7754, 48 h.
Test [6] deals with Nakaseomyces glabratus. Briefly: Antimicrobial activity against Candida glabrata isolate 7755 FKS2 F659V mutant gene after 48 hrs by broth dilution method. Conditions: isolate 7755, 48 h.
Test [7] concerns Nakaseomyces glabratus. Nature of the test: Antimicrobial activity against Candida glabrata isolate 7754 after 48 hrs by broth dilution method in presence of 50% of human serum. Conditions: isolate 7754, 48 h.
For test [8], the system named is Nakaseomyces glabratus. Briefly: Antimicrobial activity against Candida glabrata isolate 7755 FKS2 F659V mutant gene after 48 hrs by broth dilution method in presence of 50% of human serum. Conditions: isolate 7755, 48 h.

On to `CCCCCOc1ccc(-c2ccc(-c3ccc(C(=O)N[C@H]4C[C@@H](O)[C@@H](O)NC(=O)[C@@H]5[C@@H](O)[C@@H](C)CN5C(=O)[C@H]([C@@H](C)O)NC(=O)[C@H]([C@H](O)[C@@H](O)c5ccc(O)cc5)NC(=O)[C@@H]5C[C@@H](O)CN5C(=O)[C@H]([C@@H](C)O)NC4=O)cc3)cc2)cc1` [ANIDULAFUNGIN] ({pTerphenylCO(4''-OnC5H11)}-[Orn(4R-OH,5R-OH)]T[Hyp][hTyr(3S-OH,4S-OH)]T[Pro(3S-OH,4S-Me)]; lactam 1-C), for which the MIC (usually the smallest concentration in the dilution series that meets the test's criterion for growth inhibition) in test [1] worked out at 0.125 µg/mL (≈ 0.11 µM); in test [2], 0.5 µg/mL (≈ 0.438 µM); in test [3], 1 µg/mL; in test [4] it was 4 µg/mL; in test [5], 0.125 µg/mL (≈ 0.11 µM); in test [6], 1 µg/mL (≈ 0.877 µM). The MIC came to 2 µg/mL in test [7] and 4 µg/mL in test [8].

Turning to `CC[C@H](C)C[C@H](C)CCCCCCCCC(=O)N[C@H]1C[C@@H](O)[C@@H](NCCN)NC(=O)[C@@H]2[C@@H](O)CCN2C(=O)[C@H]([C@H](O)CCN)NC(=O)[C@H]([C@H](O)[C@@H](O)c2ccc(O)cc2)NC(=O)[C@@H]2C[C@@H](O)CN2C(=O)[C@H]([C@@H](C)O)NC1=O` [CASPOFUNGIN], the MIC in test [1] came to 0.25 µg/mL (≈ 0.229 µM); in test [2] it was 2 µg/mL (≈ 1.83 µM); in test [3] it was 0.5 µg/mL; in test [4] it was 2 µg/mL; in test [5], 0.25 µg/mL (≈ 0.229 µM); in test [6], 8 µg/mL (≈ 7.32 µM). Further, the figures for the MIC in test [7] and in test [8] were 0.5 µg/mL and 8 µg/mL, respectively.

Regarding `CCCCCOc1ccc(-c2cc(-c3ccc(C(=O)N[C@H]4C[C@@H](O)[C@@H](O)NC(=O)[C@@H]5[C@@H](O)[C@@H](C)CN5C(=O)[C@H]([C@H](O)CC(N)=O)NC(=O)[C@H]([C@H](O)[C@@H](O)c5ccc(O)c(OS(=O)(=O)O)c5)NC(=O)[C@@H]5C[C@@H](O)CN5C(=O)[C@H]([C@@H](C)O)NC4=O)cc3)no2)cc1` [MICAFUNGIN] (X1-[Orn(4R-OH,5R-OH)]T[Hyp][hTyr(3S-OH,4S-OH,3'-OSO3H)][Gln(3R-OH)][Pro(3S-OH,4S-Me)]; lactam 1-C), the MIC was found to be 0.125 µg/mL (≈ 0.0984 µM) in test [1]; 0.25 µg/mL (≈ 0.197 µM) in test [2]; 1 µg/mL in test [3]; 4 µg/mL in test [4]; 0.125 µg/mL (≈ 0.0984 µM) in test [5]; 0.5 µg/mL (≈ 0.394 µM) in test [6]. Also, the MIC in test [7] and in test [8] was 4 µg/mL in each case.

The record behind these values is ChEMBL document CHEMBL1275517, “Development of caspofungin resistance following prolonged therapy for invasive candidiasis secondary to Candida glabrata infection” (2008).
